From patent US4593104A, “2-halo-N-(azole-1-yl-methyl)-substituted acetanilides” (BASF Aktiengesellschaft, priority 1976, dated 1986)

Tests used:
Gossyp. hirs. = assay: preemergence treatment in the greenhouse, % damage; format: in vivo, Gosspyium hirsutum
Source text: (§1) The vessels employed were plastic flowerpots having a volume of 300 cm^3; the substrate was a sandy loam containing about 1.5% humus. The seeds of the test plants (see Table 1) were sown shallow, and separated according to species. In the case of Cyperus esculentus, pregerminated tubers were planted. In the preemergence treatment, the active ingredients were then immediately applied to the surface of the soil. They were suspended or emulsified in water as the vehicle, and sprayed through atomizing nozzles. After the agents had been applied, the vessels were lightly sprinkler-irrigated to set germination and growth going, and to activate the chemical agents. The vessels were then covered with transparent plastic hoods until the plants had taken root. This cover ensured uniform germination of the test plants (to the extent that this was not impaired by the chemicals), and prevented readily volatile substances from evaporating.
(§2) For postemergence treatment, the plants were first grown to a height of from 3 to 10 cm, depending on their habit, before treated. Hoods were not placed on the pots. The experiments were set up in the greenhouse, hotter areas (25° to 40° C.) being preferred for heat-loving species, and 15° to 30° C. for plants from moderate climates. The experiments were carried out for from 4 to 6 weeks. During this period the plants were tended and their reaction to the various treatments was assessed. The following tables contain the substances investigated, the application rates in kg/ha of active ingredient, and the test plant species. Assessments were made on a 0 to 100 scale, 0 denoting no damage or normal emergence, and 100 denoting no emergence or complete destruction of at least the visible plant parts.

Glyc. max = assay: preemergence treatment in the greenhouse, % damage; format: in vivo, Glycine max
Source text: as §1, §2

Setaria spp. [1] = assay: preemergence treatment in the greenhouse, % damage; format: in vivo
Source text: as §1, §2

Echin. c.g. = assay: preemergence treatment in the greenhouse, % damage; format: in vivo
Source text: as §1, §2

Euph. gen. = assay: preemergence treatment in the greenhouse, % damage; format: in vivo
Source text: as §1, §2

Cyp. diff. = assay: preemergence treatment in the greenhouse, % damage; format: in vivo
Source text: as §1, §2

Stell. med. [2] = assay: preemergence treatment in the greenhouse, % damage; format: in vivo
Source text: as §1, §2

Amar. retro. = assay: preemergence treatment in the greenhouse, % damage; format: in vivo
Source text: as §1, §2

Matric. spp. [3] = assay: preemergence treatment in the greenhouse, % damage; format: in vivo
Source text: as §1, §2

Sorgh. halep. = assay: preemergence treatment in the greenhouse, % damage; format: in vivo
Source text: as §1, §2

Alopec. myosur. [4] = assay: preemergence treatment in the greenhouse, % damage; format: in vivo
Source text: as §1, §2

Beta vulg. = assay: preemergence treatment in the greenhouse, % damage; format: in vivo, Beta vulgaris
Source text: as §1, §2

Sorgh. bicol. = assay: preemergence treatment in the greenhouse, % damage; format: in vivo, Sorghum bicolor
Source text: as §1, §2

Zea mays = assay: preemergence treatment in the greenhouse, % damage; format: in vivo
Source text: as §1, §2

Cyper. escul. [5] = assay: preemergence treatment in the greenhouse, % damage; format: in vivo, Cyperus esculentus
Source text: as §1, §2

Setaria spp. [6] = assay: postemergence application in the greenhouse, % damage; format: in vivo
Source text: as §1, §2

Stell. med. [7] = assay: as above; format: in vivo
Source text: as §1, §2

Matric. spp. [8] = assay: as above; format: in vivo
Source text: as §1, §2

Avena fat. = assay: as above; format: in vivo
Source text: as §1, §2

Alopec. myosur. [9] = assay: as above; format: in vivo
Source text: as §1, §2

Chrys. seget. = assay: as above; format: in vivo
Source text: as §1, §2

Cyper. escul. [10] = assay: as above; format: in vivo, Cyperus esculentus
Source text: as §1, §2

Solanum nigrum = assay: preemergence treatment in the greenhouse, % damage; format: in vivo
Source text: as §1, §2

Cc1cc(C)n(CN(C(=O)CCl)c2c(C)ccc(C)c2C)n1 [Compound 47]
% damage (Gossyp. hirs.; 0.25 kg/ha): 0% | % damage (Gossyp. hirs.; 0.5 kg/ha): 0% | % damage (Gossyp. hirs.; 1.0 kg/ha): 0% | % damage (Glyc. max; 0.25 kg/ha): 20% | % damage (Glyc. max; 0.5 kg/ha): 20% | % damage (Glyc. max; 1.0 kg/ha): 30% | % damage (Setaria spp. [1]; 0.25 kg/ha): 100% | % damage (Setaria spp. [1]; 0.5 kg/ha): 100% | % damage (Setaria spp. [1]; 1.0 kg/ha): 100% | % damage (Echin. c.g.; 0.25 kg/ha): 95% | % damage (Echin. c.g.; 0.5 kg/ha): 95% | % damage (Echin. c.g.; 1.0 kg/ha): 100% | % damage (Euph. gen.; 0.25 kg/ha): 10% | % damage (Euph. gen.; 0.5 kg/ha): 10% | % damage (Euph. gen.; 1.0 kg/ha): 20% | % damage (Cyp. diff.; 0.25 kg/ha): 100% | % damage (Cyp. diff.; 0.5 kg/ha): 100% | % damage (Cyp. diff.; 1.0 kg/ha): 100% | % damage (Stell. med. [2]; 0.25 kg/ha): 30% | % damage (Stell. med. [2]; 0.5 kg/ha): 80% | % damage (Stell. med. [2]; 1.0 kg/ha): 100% | % damage (Amar. retro.; 0.25 kg/ha): 100% | % damage (Amar. retro.; 0.5 kg/ha): 100% | % damage (Amar. retro.; 1.0 kg/ha): 100% | % damage (Matric. spp. [3]; 0.25 kg/ha): 80% | % damage (Matric. spp. [3]; 0.5 kg/ha): 90% | % damage (Matric. spp. [3]; 1.0 kg/ha): 100% | % damage (Sorgh. halep.; 0.25 kg/ha): 85% | % damage (Sorgh. halep.; 0.5 kg/ha): 90% | % damage (Sorgh. halep.; 1.0 kg/ha): 95% | % damage (Alopec. myosur. [4]; 0.25 kg/ha): 95% | % damage (Alopec. myosur. [4]; 0.5 kg/ha): 100% | % damage (Alopec. myosur. [4]; 1.0 kg/ha): 100%

CCc1ccccc1N(Cn1ccc(C)n1)C(=O)CCl [Compound 69]
% damage (Beta vulg.; 0.5 kg/ha): 20% | % damage (Sorgh. bicol.; 0.5 kg/ha): 10% | % damage (Glyc. max; 0.5 kg/ha): 20% | % damage (Setaria spp. [1]; 0.5 kg/ha): 80% | % damage (Zea mays; 0.5 kg/ha): 0% | % damage (Amar. retro.; 0.5 kg/ha): 95% | % damage (Alopec. myosur. [4]; 0.5 kg/ha): 100%

CCc1cccc(C)c1N(Cn1cncn1)C(=O)CCl [Compound 189]
% damage (Gossyp. hirs.; 0.5 kg/ha): 0% | % damage (Gossyp. hirs.; 1.0 kg/ha): 20% | % damage (Gossyp. hirs.; 2.0 kg/ha): 20% | % damage (Cyper. escul. [5]; 0.5 kg/ha): 50% | % damage (Cyper. escul. [5]; 1.0 kg/ha): 60% | % damage (Cyper. escul. [5]; 2.0 kg/ha): 80% | % damage (Setaria spp. [6]; 1.0 kg/ha): 80% | % damage (Setaria spp. [6]; 2.0 kg/ha): 85% | % damage (Stell. med. [7]; 1.0 kg/ha): 0% | % damage (Stell. med. [7]; 2.0 kg/ha): 40% | % damage (Matric. spp. [8]; 1.0 kg/ha): 30% | % damage (Matric. spp. [8]; 2.0 kg/ha): 60% | % damage (Avena fat.; 1.0 kg/ha): 60% | % damage (Avena fat.; 2.0 kg/ha): 60% | % damage (Alopec. myosur. [9]; 1.0 kg/ha): 70% | % damage (Alopec. myosur. [9]; 2.0 kg/ha): 70% | % damage (Chrys. seget.; 1.0 kg/ha): 0% | % damage (Chrys. seget.; 2.0 kg/ha): 20% | % damage (Cyper. escul. [10]; 1.0 kg/ha): 65% | % damage (Cyper. escul. [10]; 2.0 kg/ha): 65% | % damage (Glyc. max; 0.5 kg/ha): 0% | % damage (Glyc. max; 1.0 kg/ha): 0% | % damage (Glyc. max; 2.0 kg/ha): 0% | % damage (Setaria spp. [1]; 0.5 kg/ha): 75% | % damage (Setaria spp. [1]; 1.0 kg/ha): 95% | % damage (Setaria spp. [1]; 2.0 kg/ha): 100% | % damage (Solanum nigrum; 0.5 kg/ha): 30% | % damage (Solanum nigrum; 1.0 kg/ha): 95% | % damage (Solanum nigrum; 2.0 kg/ha): 95% | % damage (Echin. c.g.; 0.5 kg/ha): 90% | % damage (Echin. c.g.; 1.0 kg/ha): 95% | % damage (Echin. c.g.; 2.0 kg/ha): 95% | % damage (Euph. gen.; 0.5 kg/ha): 90% | % damage (Euph. gen.; 1.0 kg/ha): 95% | % damage (Euph. gen.; 2.0 kg/ha): 95% | % damage (Amar. retro.; 0.5 kg/ha): 30% | % damage (Amar. retro.; 1.0 kg/ha): 95% | % damage (Amar. retro.; 2.0 kg/ha): 95%

CCc1cccc(C)c1N(Cn1ccc(C)n1)C(=O)CCl [Compound 68]
% damage (Gossyp. hirs.; 0.25 kg/ha): 0% | % damage (Gossyp. hirs.; 1.0 kg/ha): 5% | % damage (Gossyp. hirs.; 2.0 kg/ha): 5% | % damage (Cyper. escul. [5]; 0.25 kg/ha): 65% | % damage (Cyper. escul. [5]; 1.0 kg/ha): 80% | % damage (Cyper. escul. [5]; 2.0 kg/ha): 80% | % damage (Setaria spp. [6]; 1.0 kg/ha): 90% | % damage (Setaria spp. [6]; 2.0 kg/ha): 95% | % damage (Stell. med. [7]; 1.0 kg/ha): 60% | % damage (Stell. med. [7]; 2.0 kg/ha): 60% | % damage (Matric. spp. [8]; 1.0 kg/ha): 80% | % damage (Matric. spp. [8]; 2.0 kg/ha): 80% | % damage (Avena fat.; 1.0 kg/ha): 90% | % damage (Avena fat.; 2.0 kg/ha): 90% | % damage (Alopec. myosur. [9]; 1.0 kg/ha): 90% | % damage (Alopec. myosur. [9]; 2.0 kg/ha): 90% | % damage (Chrys. seget.; 1.0 kg/ha): 40% | % damage (Chrys. seget.; 2.0 kg/ha): 50% | % damage (Cyper. escul. [10]; 1.0 kg/ha): 85% | % damage (Cyper. escul. [10]; 2.0 kg/ha): 85% | % damage (Glyc. max; 0.25 kg/ha): 0% | % damage (Glyc. max; 1.0 kg/ha): 0% | % damage (Glyc. max; 2.0 kg/ha): 10% | % damage (Setaria spp. [1]; 0.25 kg/ha): 95% | % damage (Setaria spp. [1]; 1.0 kg/ha): 100% | % damage (Setaria spp. [1]; 2.0 kg/ha): 100% | % damage (Solanum nigrum; 0.25 kg/ha): 95% | % damage (Solanum nigrum; 1.0 kg/ha): 100% | % damage (Solanum nigrum; 2.0 kg/ha): 100% | % damage (Echin. c.g.; 0.25 kg/ha): 95% | % damage (Echin. c.g.; 1.0 kg/ha): 95% | % damage (Echin. c.g.; 2.0 kg/ha): 95% | % damage (Euph. gen.; 0.25 kg/ha): 10% | % damage (Euph. gen.; 1.0 kg/ha): 60% | % damage (Euph. gen.; 2.0 kg/ha): 75% | % damage (Amar. retro.; 0.25 kg/ha): 95% | % damage (Amar. retro.; 1.0 kg/ha): 100% | % damage (Amar. retro.; 2.0 kg/ha): 100%

Cc1cccc(C)c1N(Cn1nc(C)c(Cl)c1C)C(=O)CCl [Compound 106]
% damage (Beta vulg.; 1.0 kg/ha): 10% | % damage (Beta vulg.; 2.0 kg/ha): 10% | % damage (Sorgh. bicol.; 1.0 kg/ha): 70% | % damage (Sorgh. bicol.; 2.0 kg/ha): 70% | % damage (Glyc. max; 1.0 kg/ha): 10% | % damage (Glyc. max; 2.0 kg/ha): 10% | % damage (Setaria spp. [1]; 1.0 kg/ha): 90% | % damage (Setaria spp. [1]; 2.0 kg/ha): 95% | % damage (Zea mays; 1.0 kg/ha): 15% | % damage (Zea mays; 2.0 kg/ha): 50% | % damage (Amar. retro.; 1.0 kg/ha): 95% | % damage (Amar. retro.; 2.0 kg/ha): 95% | % damage (Alopec. myosur. [4]; 1.0 kg/ha): 100% | % damage (Alopec. myosur. [4]; 2.0 kg/ha): 100%
